Experimental data reported in patent US20260285924A1, “PEPTIDE THERAPEUTICS” (priority 2023, published 2026).
Entries after “also recorded” stand apart in the source; their conditions may differ.

Legend:
[1] = system: A375-NRAS^Q61K; assay: Pan-Cancer PepTile fitness screen (lentiviral 40-mer peptide library, NGS abundance); format: cell-based, human; conditions: peptide enrichment day 14 vs day 0
Protocol: (§1) A peptide tilling screen was performed in A375 similarly to a screen done in MDA-MB-231 (FIG. 1) but with a different lentiviral library. The library (Pan-Cancer library) is composed of 1020 genes tiled every 6 amino acids into 40-mer amino acid long peptides. The gene selection was based on their implication in oncogenesis either being as oncogenes or tumor suppressors. The list was built using recent literature that identified new cancer drivers as well as databases such as Uniprot keywords (KW-0656: Proto-oncogene, KW-0043: Tumor suppressor), and Gene Ontology terms (GO1900117: Apoptosis, GO1901979: Cell cycle checkpoint) (FIG. 2). Aside from Human genes, a list of viral genes was also included (KW-1121: Modulation of host cell cycle by virus) that play roles in high jacking cell cycle progression and thus in oncogenesis (FIG. 2).
(§2) The model of study is melanoma, and this disease is stratified into 4 molecular subtypes, BRAF mutants, NRAS mutants, KIT amplification, NF1 mutations (FIG. 3A). The most prominent mutations found in patient affected with metastatic melanomas are BRAF^V600E and NRAS^Q61K (FIG. 3B). RAS play a key role in oncogenesis and resistance to treatments. Indeed, RAS activating mutations is found in ~20% of all human cancers and secondary NRAS mutation leads to acquired resistance to BRAF targeted therapy such as vemurafenib. Thus, the screen was performed in an A375 cell line model which derived from human BRAF^V600E melanoma as well as an engineered A375 transduced with HA-NRAS^Q61K (FIG. 4A, B). Both cell lines grow at a similar rate but the A375-NRAS^Q61K display more than 10-fold resistance to vemurafenib treatment compared to parental A375 (FIG. 4C, D).
(§3) These cells were transduced with the Pan-Cancer library at a low multiplicity of infection (MOI=0.1-0.3). Then, genomic DNA was extracted at day 0 and day 14 post-transduction to quantify the abundance of peptide for each temporal conditions using Next-generation sequencing. Each experimental replicates were deep sequenced with at least 150 million reads and show a coverage between 82-90% of the initial Pan-Cancer Peptide library (FIG. 5). Then, for each individual peptides a cellular fitness score was calculated based on their enrichment between day 0 and day 14. 8090 peptides negatively affecting growth of A375-WT were identified and 8153 peptides for the A375-NRAS^Q61K cell line (FIG. 6). […] Those common hits are found to be tiles from ~100 genes of the Pan-Cancer gene list and show a substantial biological function clustering.

[2] = system: A375-NRAS^Q61K; assay: Validation assay: cell growth (CCK8, 48 hours after plating) of cells transduced with single peptide tiles; format: cell-based, human; conditions: peptide overexpression
Excerpt: (§4) FIGS. 9A-9C. (A) Fitness screen validation assay workflow. (B) Validation assay results (C) Fitness screen results.
(§5) All those selected hits mapped to a known protein domain with known roles in protein-protein interaction or protein-DNA interaction. […] When the fold change of every tile on the protein amino acid positions was mapped, functional regions of the protein affecting cell growth were identified. For example, on RAF1, peaks corresponding to the Ras-binding domain (RBD) were identified, and the kinase domain (FIG. 8A). […] In addition, a region of MYC that affect cell growth was identified and mapped on the DNA binding domain bHLH (FIG. 8). […] To validate the results from the screen, A375-WT and -NRAS^Q61K were transduced with GFP_147, or RAF1_78, MYC_384, or KIT_499, or SOS_120 tiles and cell growth measured using CCK8 assay
(§6) 48 hours after plating (FIG. 9A). […] The CR2 domain of BRAF contain a 14-3-3 binding site and play a role in BRAF-MEK autoinhibitory complex which regulates MAPK pathway activation. One of the goals of this contextual PepTile screen was to identify peptides that would impair growth of NRAS cell line but not the parental, to address overall NRAS-driven drug resistance. For instance, more than 6000 peptide hits were detected that are exclusive to A375-NRAS^Q61K (FIG. 6). For example, ARHGAP20 and ARHGAP26 show a very different PepTile profiles between A375-NRAS^Q61K and A375-WT (FIG. 11) and seem to have more of an effect in the A375-NRAS^Q61K condition. Altogether, the Pan-Cancer PepTile screen show the potential of finding new potential peptides to target NRAS melanoma, as well as mapping protein domains involved in cellular growth in a given context.

[3] = system: A375-WT; assay: Pan-Cancer PepTile/PiTile fitness screen (lentiviral 40-mer peptide library, NGS abundance); format: cell-based, human; set-up: key: enrichment of each peptide's NGS abundance, early day vs Day 14; conditions: for A375-WT Fitness Score: Pan-Cancer library, peptide enrichment day 14 vs day 0
Excerpt: FIGS. 13A-13D show Pan-Cancer PiTile Workflow. (A) The Pan-Cancer peptide library is composed of 1081 proteins tiled into 40-mer peptides at every 6 amino acids of the parental protein. The DNA-encoded library is cloned into lentiviral vectors and packaged into lentivirus. (B) A375 cell line was transduced with the Pan-Cancer PiTile library. Genomic DNA was then harvested at Day2 and Day 14 post-transduction and cell populations abundance expressing the different peptides were quantified using Next-Generation Sequencing (NGS). Peptide fitness score was then calculated by the abundance of each peptide at Day2 versus Day 14. Then the fitness signal is mapped over the original amino acid positions of the derived protein. (C) Coverage of the plasmid Pan-Cancer library and peptide-amplicons from Day2 and Day 14 replicated was determined by NGS. (D) Dot plot of the experimental result obtain from screening the Pan-Cancer library in A375 cell line.
as §1, §2, §3
We built a DNA-encoded peptide library composed of all known Human oncogenes and Tumor Suppressors that we fragmented in 40 amino acid long peptides, the Pan-Cancer library. Using lentiviral expression system, we transduced the Pan-Cancer library in A375 cell line. After 14 days of growth, the frequency of each peptide is measured by NGS and this reveal which peptides affect cell fitness. […]

[4] = system: A375-WT; assay: Validation assay: cell growth (CCK8, 48 hours after plating) of cells transduced with single peptide tiles; format: cell-based, human; conditions: peptide overexpression
Protocol: as §4
(§7) FIGS. 14A-14E show PiTiles derived from DNA-binding domains of MYC and SOX17 inhibit transcriptional program. (A) Experimental workflow of A375 cell line individually transduced with lentivirus expressing GFP_147, MYC_384 or SOX17_96. 5 days post-transductions, RNA was harvested for RNA sequencing. Additionally, cells were plated for a 48-hour growth assay. (B) Cell growth of A375 cell line expressing GFP_147 (control), MYC_384 and SOX17_96. […] Red bar=FDR<0.05. We observe a negative peak in bHLHzip domain of MYC as well as HMG box domain of SOX17. Both domains mediated binding to DNA. (D) Principal Component Analysis of RNA-sequencing for both biological replicates of GFP_147, MYC_384 and SOX17_96 expressing cell lines. (E) A375 RNAseq data was analyzed using Gene Set Enrichment Analysis. For MYC_384 versus GFP_147 over ODONNEL_TARGET_OF_MYC_and_TFRC. For SOX17_96 versus GFP_147 over PRANMOOJAGO_SOX4.
as §5, §6

[5] = system: MDA-MB-231; conditions: cited from earlier work
[6] = system: MYC transcriptional program (ODONNEL_TARGET_OF_MYC_and_TFRC); assay: RNA-sequencing GSEA of A375 expressing MYC_384 versus GFP_147; format: cell-based, human; conditions: 5 days post-transduction
Protocol: as §7

[7] = system: SOX17 transcriptional program (PRANMOOJAGO_SOX4); assay: RNA-sequencing GSEA of A375 expressing SOX17_96 versus GFP_147; format: cell-based, human; conditions: 5 days post-transduction
Protocol: as §7

Substance | A375-NRAS Fitness Score [1] | cell growth compared to GFP_147 [2] | A375-WT Fitness Score [3] | cell growth compared to GFP_147 [4] | hit in previous screen [5] | GSEA of MYC transcriptional program [6] | cell growth compared to GFP_147 ([4]; listed as MYC_384) | Fitness score ([3]; PanCancer Peptide Table, 40-mer peptide tile expressed from lentiviral library) | GSEA of SOX17 transcriptional program [7]
KIT_84: 40-mer peptide tile of KIT, AA start position 498, Transmembrane domain (GKTSAYFNFAFKGNNKEQIHPHTLFTPLLIGFVIVAGMMC; UniProt P10721 498-537, looked up, fragment) | −0.77 | much less affected | −3.23 | decreases cell growth |  |  |  |  | 
MYC_65: 40-mer peptide tile of MYC, AA start position 384, bHLH domain (ELKRSFFALRDQIPELENNEKAPKVVILKKATAYILSVQA; UniProt P01106 384-423, looked up, fragment) | −0.47 | not affected | −2.50 |  | identified and validated | downregulation of their respective transcriptional programs | cell growth defect; also recorded: decreases cell growth |  | 
RAF1_14: 40-mer peptide tile of RAF1, AA start position 78, RBD (LHDCLMKALKVRGLQPECCAVFRLLHEHKGKKARLDWNTD; UniProt P04049 78-117, looked up, fragment) | −0.50 | much less affected | −1.79 | decreases cell growth | identified and validated |  |  |  | 
SMARCA4_257: 40-mer peptide tile of SMARCA4, AA start position 1536, Bromodomain (AQTFNLEGSLIYEDSIVLQSVFTSVRQKIEKEDDSEGEES; UniProt P51532 1536-1575, looked up, fragment) | −0.54 |  | −4.98 |  |  |  |  |  | 
SMC3_124: 40-mer peptide tile of SMC3, AA start position 738, Coiled Coil domain (EMKMLKEKRQQSEKTFMPKQRSLQSLEASLHAMESTRESL; UniProt Q9UQE7 738-777, looked up, fragment) | 0.13 |  | −3.08 |  |  |  |  | −3.09 | 
SOS1_21: 40-mer peptide tile of SOS1, AA start position 120, HF domain | −0.81 | not affected | −2.56 | decreases cell growth |  |  |  |  | 
SOX17_17: 40-mer peptide tile of SOX17, AA start position 96, HMG box | −0.77 |  | −4.49 | cell growth defect |  |  |  |  | downregulation of their respective transcriptional programs
SUZ12_23: 40-mer peptide tile of SUZ12, AA start position 132, WDB1 domain (FKVDDMLSKVEKMKGEQESHSLSAHLQLTFTGFFHKNDKP; UniProt Q15022 132-171, looked up, fragment) | −0.27 |  | −2.12 |  |  |  |  |  | 
